Results on two molecules are retold here after US11708283B2, “Metal-chelating compositions and their use in methods of removing or inhibiting barium scale” (CORNELL UNIVERSITY, priority 2018, dated 2023).

For data set [1] the following is noted: CRC Handbook; cited from earlier work.
Data set [2] in a line: Hydroxyapatite challenge of Ba-L complexes (GFAAS). The format is physicochemical. Particulars: HAP suspension, pH 7.6, after 20 h. The procedure:
HAP was suspended in solutions containing the complexes formed in situ (1.1 equiv L, 1.0 equiv Ba^2+) in pH 7.6 buffer, and the amount of Ba^2+ remaining in the liquid phase, reflecting intact Ba-L complex, was determined by graphite furnace atomic absorption spectroscopy (GFAAS). Whereas free Ba^2+ is adsorbed by HAP in less than 10 min, Ba-macropa and Ba-macropaquin respectively retained 82% and 68% of this ion after 20 h. […] This feature may be important for Ba^2+ chelation in industrial applications, such as scale dissolution, because numerous other metal ions are present during these processes. […]
More specifically, hydroxyapatite (HAP, Ca5(PO4)3(OH)) challenges were carried out in 500 mM Tris buffer. […] The concentrations of these stocks were verified by quantitative NMR (n=2 for each ligand) using two independently prepared standards of potassium hydrogen phthalate in D2O. […] The concentration of macroquin-SO3 was determined by UV-vis spectrophotometry from the average of two titrations with Ba^2+. […] The absorbance at 320 nm was monitored until spectral changes ceased, at which point [Ba^2+]=[L]. From the volume of titrant added, the concentration of the stock solution of macroquin-SO3 was calculated to be 8.17 mM, which was within 9% of the theoretical value of 8.96 mM based on mass. […]

In the case of `O=S(=O)([O-])[O-].[Ba+2]` [BaSO4], the Ksp in data set [1] was 1.08×10^−10. Consider `O=C([O-])c1cccc(CN2CCOCCOCCN(Cc3cccc(C(=O)[O-])n3)CCOCCOCC2)n1.[Ba+2]` [Ba-macropa], for which, in data set [2], the “Ba^2+ remaining in the liquid phase (intact Ba-L complex)” value was determined as 82%.
